Data on two compounds can be found in PMC7136958, “Targeting the pregnane X receptor using microbial metabolite mimicry” (EMBO Molecular Medicine, 2020).

Where “and” joins values, the source holds several entries; their conditions need not be identical. Equal values may be shown once.

In one data set the target is CDK5 (Homo sapiens, UniProt Q00535). The data set can be described thus: KINOMEscan select kinase screen. The class given is binding. To be noted: two experiments. As for the experimental part: (§1) Kinase Assays. The kinase inhibition assays were conducted by DiscoverX on a platform assay by Ambit BioSciences as described previously 16,17. FKK6 was screened at a single concentration of 10 μM in duplicate. The scanMAXSM assay panel measures 468 kinases
(§2) (https://www.discoverx.com/services/drug-discovery-development-services/kinase-profiling/kinomescan/scanmax). The assays measure a compound’s ability to inhibit binding of a canonical ligand substrate, with 0% activity of control corresponding to full inhibition and 100% activity of control to no inhibition. […]
(§3) quantitative measure of compound selectivity based on the number of kinase hits (enzymes inhibited) divided by the total number of distinct kinases tested. Three different activity cut-offs were analyzed – […]
(§4) ; and S(1) or % activity of control
(§5) < 1. To illustrate effect or lack of effect, an image of the entire family of kinases tested were grouped by families and S(35). The TREEspot Kinase dendrogram image was generated using TREEspot™ Software Tool and reprinted with permission from KINOME scan®, a division of DiscoveRx […]

For the next data set, the target named is ERK4 (Homo sapiens, UniProt P31152). The data set can be described thus: KINOMEscan select kinase screen. The format is binding. The conditions noted are these: two experiments. As for the experimental part: as §1, §2, §3, §4, §5
Another data set deals with ERK1 (Homo sapiens, UniProt P27361). Briefly: KINOMEscan select kinase screen. The conditions noted are these: 10000 nM, two experiments. The class given is binding. As for the experimental part:
as §1, §2, §3, §4, §5

In the next data set the target is ERK5 (Homo sapiens, UniProt Q13164). The data set can be described thus: KINOMEscan select kinase screen. To be noted: two experiments. The format is binding. As for the experimental part:
as §1, §2, §3, §4, §5

In another data set the target is ERK2 (Homo sapiens, UniProt P28482). The data set can be described thus: KINOMEscan select kinase screen. The class given is binding. The conditions noted are these: two experiments. As for the experimental part:
as §1, §2, §3, §4, §5

A further data set concerns the target GSK3A (Homo sapiens, UniProt P49840). The data set can be described thus: KINOMEscan select kinase screen. The class given is binding. To be noted: two experiments. As to the method: as §1, §2, §3, §4, §5
The target of another data set is T1, ERK8 (Homo sapiens, UniProt Q8TD08).
T1 sequence (Q8TD08 1-544): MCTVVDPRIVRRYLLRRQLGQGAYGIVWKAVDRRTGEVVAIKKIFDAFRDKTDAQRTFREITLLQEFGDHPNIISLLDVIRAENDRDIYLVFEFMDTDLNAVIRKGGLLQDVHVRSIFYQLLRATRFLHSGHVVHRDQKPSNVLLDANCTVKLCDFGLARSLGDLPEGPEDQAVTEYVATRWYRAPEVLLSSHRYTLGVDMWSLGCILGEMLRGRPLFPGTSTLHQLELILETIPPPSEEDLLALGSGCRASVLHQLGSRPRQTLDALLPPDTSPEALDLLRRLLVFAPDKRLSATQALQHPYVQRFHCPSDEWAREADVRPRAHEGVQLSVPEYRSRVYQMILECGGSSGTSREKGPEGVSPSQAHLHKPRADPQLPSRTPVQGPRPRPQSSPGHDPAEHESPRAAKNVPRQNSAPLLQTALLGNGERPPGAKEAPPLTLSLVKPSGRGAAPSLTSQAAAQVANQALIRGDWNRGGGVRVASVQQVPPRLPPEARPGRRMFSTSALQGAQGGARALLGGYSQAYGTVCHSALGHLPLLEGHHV
The data set can be described thus: KINOMEscan select kinase screen. The class given is binding. The conditions noted are these: two experiments. As to the method: as §1, §2, §3, §4, §5

The target of another data set is T2, IKK-alpha (Homo sapiens, UniProt O15111).
T2 sequence (O15111 1-745): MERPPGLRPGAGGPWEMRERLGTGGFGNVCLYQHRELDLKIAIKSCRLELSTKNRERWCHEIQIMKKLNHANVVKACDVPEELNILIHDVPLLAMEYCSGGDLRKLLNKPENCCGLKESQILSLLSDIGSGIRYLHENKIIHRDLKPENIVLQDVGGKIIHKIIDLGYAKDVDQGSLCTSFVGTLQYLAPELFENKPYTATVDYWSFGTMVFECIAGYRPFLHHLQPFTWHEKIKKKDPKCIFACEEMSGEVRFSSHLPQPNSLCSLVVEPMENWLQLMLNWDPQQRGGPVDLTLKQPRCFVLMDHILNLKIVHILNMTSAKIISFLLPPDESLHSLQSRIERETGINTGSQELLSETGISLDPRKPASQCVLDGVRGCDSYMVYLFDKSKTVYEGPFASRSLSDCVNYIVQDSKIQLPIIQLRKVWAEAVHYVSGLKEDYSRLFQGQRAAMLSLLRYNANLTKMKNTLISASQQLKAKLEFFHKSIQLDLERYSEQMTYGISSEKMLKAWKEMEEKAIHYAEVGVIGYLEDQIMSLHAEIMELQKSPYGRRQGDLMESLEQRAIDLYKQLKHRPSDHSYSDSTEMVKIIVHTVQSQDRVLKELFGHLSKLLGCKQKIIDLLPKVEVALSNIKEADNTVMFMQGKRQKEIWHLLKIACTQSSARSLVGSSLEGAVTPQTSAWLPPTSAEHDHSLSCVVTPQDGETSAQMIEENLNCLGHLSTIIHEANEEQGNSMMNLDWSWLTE
Briefly: KINOMEscan select kinase screen. The format is binding. To be noted: two experiments. As to the method: as §1, §2, §3, §4, §5

Another data set deals with CDK2 (Homo sapiens, UniProt P24941). Briefly: KINOMEscan select kinase screen. The format is binding. To be noted: two experiments. As to the method: as §1, §2, §3, §4, §5
For a further data set, the target named is GSK3B (Homo sapiens, UniProt P49841). The data set can be described thus: KINOMEscan select kinase screen. The format is binding. The conditions noted are these: two experiments. As for the experimental part:
as §1, §2, §3, §4, §5

A further data set deals with mice. Briefly: 30 Day toxicity study in mice. The class given is in vivo, mouse. As to the method:
The LS180 cell line was used to assess cell cytotoxicity using the MTT (3‐(4,5‐dimethylthiazolyl‐2)‐2,5‐diphenyltetrazolium bromide) assay as previously described (Bartonkova et al, 2015, 2016). […] FKK6 was selected as a lead compound for assessment, given that it had the more favorable PXR‐selective ligand activity in cells. […] The mice were gavaged for ten consecutive days and necropsied on day 12 with the collection of blood (serum). […] Similarly, a 30‐day toxicity test was conducted in mice using FKK6 at an oral dose of 200 μM in 0.8% DMSO per day. We chose this dose to stay within the safe DMSO dose administered to mice over 30 days. On day 30, we necropsied the mice and collected blood (serum).

[1] abbreviates: oral 200 μM in 0.8% DMSO per day, 30 days.

ERK4, sequence (P31152 whole entry): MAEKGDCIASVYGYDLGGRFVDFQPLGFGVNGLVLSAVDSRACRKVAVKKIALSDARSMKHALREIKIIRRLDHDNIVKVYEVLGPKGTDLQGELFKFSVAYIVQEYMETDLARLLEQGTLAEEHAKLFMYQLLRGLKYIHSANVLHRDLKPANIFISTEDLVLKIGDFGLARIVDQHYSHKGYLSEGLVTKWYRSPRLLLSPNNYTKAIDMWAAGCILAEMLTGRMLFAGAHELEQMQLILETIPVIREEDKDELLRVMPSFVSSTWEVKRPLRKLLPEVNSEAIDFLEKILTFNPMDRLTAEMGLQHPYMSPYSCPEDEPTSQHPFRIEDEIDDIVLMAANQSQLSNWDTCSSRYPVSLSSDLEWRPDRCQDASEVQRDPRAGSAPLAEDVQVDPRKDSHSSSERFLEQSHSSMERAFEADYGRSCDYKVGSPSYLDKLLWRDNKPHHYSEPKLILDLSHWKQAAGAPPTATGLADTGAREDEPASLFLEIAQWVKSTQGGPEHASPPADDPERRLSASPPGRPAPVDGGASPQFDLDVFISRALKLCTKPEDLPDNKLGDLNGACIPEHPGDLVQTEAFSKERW
GSK3A, sequence (P49840 whole entry): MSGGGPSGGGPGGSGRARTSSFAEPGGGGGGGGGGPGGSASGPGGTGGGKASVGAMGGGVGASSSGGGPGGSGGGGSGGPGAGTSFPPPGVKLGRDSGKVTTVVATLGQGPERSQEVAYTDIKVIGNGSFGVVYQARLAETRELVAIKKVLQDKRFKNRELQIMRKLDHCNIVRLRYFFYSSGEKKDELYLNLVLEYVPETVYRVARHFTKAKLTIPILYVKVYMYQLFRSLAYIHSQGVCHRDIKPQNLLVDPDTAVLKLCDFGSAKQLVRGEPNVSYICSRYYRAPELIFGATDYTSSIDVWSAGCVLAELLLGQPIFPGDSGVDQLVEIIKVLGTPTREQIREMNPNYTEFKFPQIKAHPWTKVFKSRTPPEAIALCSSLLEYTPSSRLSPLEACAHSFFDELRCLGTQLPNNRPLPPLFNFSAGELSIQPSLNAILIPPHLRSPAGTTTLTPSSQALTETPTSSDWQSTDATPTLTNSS
GSK3B, sequence (P49841 whole entry): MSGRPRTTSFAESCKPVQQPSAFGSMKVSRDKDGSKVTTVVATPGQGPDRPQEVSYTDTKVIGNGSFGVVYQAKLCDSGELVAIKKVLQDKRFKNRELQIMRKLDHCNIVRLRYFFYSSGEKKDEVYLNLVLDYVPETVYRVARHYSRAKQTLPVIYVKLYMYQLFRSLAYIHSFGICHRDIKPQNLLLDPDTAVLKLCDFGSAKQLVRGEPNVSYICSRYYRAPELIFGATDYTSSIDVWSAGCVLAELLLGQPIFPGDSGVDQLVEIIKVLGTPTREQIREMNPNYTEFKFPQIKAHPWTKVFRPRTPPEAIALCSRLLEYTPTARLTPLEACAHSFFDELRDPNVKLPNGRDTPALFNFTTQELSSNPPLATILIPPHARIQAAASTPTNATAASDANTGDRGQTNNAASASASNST
CDK5, sequence (Q00535 whole entry): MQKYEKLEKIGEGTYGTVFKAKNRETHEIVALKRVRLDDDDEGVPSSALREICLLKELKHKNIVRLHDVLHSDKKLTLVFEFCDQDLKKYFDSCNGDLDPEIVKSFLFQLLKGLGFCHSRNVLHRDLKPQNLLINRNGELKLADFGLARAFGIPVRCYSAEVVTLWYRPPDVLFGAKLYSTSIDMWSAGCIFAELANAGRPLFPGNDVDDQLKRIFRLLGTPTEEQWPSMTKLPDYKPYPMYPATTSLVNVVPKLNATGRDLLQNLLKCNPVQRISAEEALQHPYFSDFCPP
ERK2, sequence (P28482 whole entry): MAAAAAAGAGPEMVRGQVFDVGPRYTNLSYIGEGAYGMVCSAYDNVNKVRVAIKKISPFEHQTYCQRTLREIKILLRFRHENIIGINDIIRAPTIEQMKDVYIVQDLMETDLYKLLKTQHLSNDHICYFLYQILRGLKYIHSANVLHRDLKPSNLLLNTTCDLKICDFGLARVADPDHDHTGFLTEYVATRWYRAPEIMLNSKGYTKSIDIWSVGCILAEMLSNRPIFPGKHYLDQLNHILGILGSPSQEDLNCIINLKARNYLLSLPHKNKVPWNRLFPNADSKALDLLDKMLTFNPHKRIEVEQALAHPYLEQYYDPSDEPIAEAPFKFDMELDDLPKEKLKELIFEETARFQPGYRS
ERK5, sequence (Q13164 whole entry): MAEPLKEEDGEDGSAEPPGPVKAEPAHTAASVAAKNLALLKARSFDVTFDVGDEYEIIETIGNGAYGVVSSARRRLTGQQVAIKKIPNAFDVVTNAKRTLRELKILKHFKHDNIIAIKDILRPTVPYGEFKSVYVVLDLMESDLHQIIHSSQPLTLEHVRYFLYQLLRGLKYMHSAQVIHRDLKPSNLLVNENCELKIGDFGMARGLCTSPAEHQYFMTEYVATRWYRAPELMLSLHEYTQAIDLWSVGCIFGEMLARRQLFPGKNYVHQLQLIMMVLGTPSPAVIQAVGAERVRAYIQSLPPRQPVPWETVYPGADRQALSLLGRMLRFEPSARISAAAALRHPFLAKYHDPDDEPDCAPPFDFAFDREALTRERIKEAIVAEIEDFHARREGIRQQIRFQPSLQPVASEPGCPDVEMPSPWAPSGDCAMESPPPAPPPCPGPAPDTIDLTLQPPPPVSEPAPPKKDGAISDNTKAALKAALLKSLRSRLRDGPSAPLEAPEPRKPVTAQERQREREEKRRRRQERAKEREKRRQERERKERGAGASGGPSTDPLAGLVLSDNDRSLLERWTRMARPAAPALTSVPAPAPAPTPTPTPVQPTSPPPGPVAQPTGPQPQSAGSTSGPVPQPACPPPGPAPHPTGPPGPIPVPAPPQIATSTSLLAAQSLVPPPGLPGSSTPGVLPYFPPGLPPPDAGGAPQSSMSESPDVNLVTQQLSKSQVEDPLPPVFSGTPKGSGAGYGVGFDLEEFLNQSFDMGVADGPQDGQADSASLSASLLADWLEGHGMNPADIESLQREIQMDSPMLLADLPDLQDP
ERK1, sequence (P27361 whole entry): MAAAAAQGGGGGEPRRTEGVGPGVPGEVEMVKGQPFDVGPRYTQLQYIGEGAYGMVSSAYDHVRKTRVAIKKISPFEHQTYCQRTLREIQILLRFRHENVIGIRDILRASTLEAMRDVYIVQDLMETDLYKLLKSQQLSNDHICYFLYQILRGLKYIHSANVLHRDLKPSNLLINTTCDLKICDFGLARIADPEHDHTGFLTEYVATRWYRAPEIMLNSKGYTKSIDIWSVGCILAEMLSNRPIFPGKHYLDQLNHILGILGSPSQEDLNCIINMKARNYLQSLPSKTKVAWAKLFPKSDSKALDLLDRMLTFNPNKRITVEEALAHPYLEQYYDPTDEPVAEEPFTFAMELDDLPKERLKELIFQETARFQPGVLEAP

Regarding `O=C(c1ccncc1)c1cc2ccccc2n1S(=O)(=O)c1ccccc1` [FKK5, (1-(phenylsulfonyl)-1H-indol-2-yl)(pyridin-4-yl)methanone], the “%Ctrl” value at CDK5 (10000 nM, 10 µM) is 77 %Ctrl and 100 %Ctrl; at CDK5 (25000 nM, 25 µM), 61 %Ctrl and 100 %Ctrl; at ERK4 (10000 nM, 10 µM) it was 82 %Ctrl; on ERK4 (25000 nM, 25 µM), 91 %Ctrl; on ERK1 (10 µM), 100 %Ctrl; on ERK5 (10000 nM, 10 µM), 79 %Ctrl. The “%Ctrl” value at ERK5 (25000 nM, 25 µM) was 92 %Ctrl; on ERK2 (10000 nM, 10 µM), 100 %Ctrl; at ERK2 (25000 nM, 25 µM) it was 85 %Ctrl; on GSK3A (10000 nM, 10 µM), 92 %Ctrl; at GSK3A (25000 nM, 25 µM), 49 %Ctrl and 77 %Ctrl; at ERK8 (10000 nM, 10 µM), 97 %Ctrl and 71 %Ctrl. For the same compound, the “%Ctrl” value is 65 %Ctrl at ERK8 (25000 nM, 25 µM); 86 %Ctrl on IKK-alpha (10000 nM, 10 µM); 100 %Ctrl at IKK-alpha (25000 nM, 25 µM); 100 %Ctrl and 74 %Ctrl at CDK2 (10000 nM, 10 µM); 89 %Ctrl and 63 %Ctrl on CDK2 (25000 nM, 25 µM); 92 %Ctrl on GSK3B (10000 nM, 10 µM). Besides, at GSK3B (25000 nM, 25 µM), the “%Ctrl” value amounted to 90 %Ctrl. Besides, the remaining binding at 10 µM at ERK4 (10000 nM, read-out: %Ctrl) worked out at 97%; at ERK1 (read-out: %Ctrl) it was 86%; at ERK5 (10000 nM, read-out: %Ctrl), 94%; at ERK2 (10000 nM, read-out: %Ctrl) it was 99%; at GSK3A (10000 nM, read-out: %Ctrl), 79%; on IKK-alpha (10000 nM, read-out: %Ctrl) it was 96%. Besides, the remaining binding at 10 µM at GSK3B (10000 nM, read-out: %Ctrl) was determined as 100%. Further, the remaining binding at 25 µM at ERK4 (25000 nM, read-out: %Ctrl) stood at 89%; at ERK5 (25000 nM, read-out: %Ctrl), 100%; at ERK2 (25000 nM, read-out: %Ctrl), 94%; on ERK8 (25000 nM, read-out: %Ctrl) it was 75%; on IKK-alpha (25000 nM, read-out: %Ctrl), 83%; on GSK3B (25000 nM, read-out: %Ctrl), 98%.

Consider `C#CCC(O)(c1ccncc1)c1cc2ccccc2n1S(=O)(=O)c1ccccc1` (stereo not shown) [FKK6], for which, in the data set on mice (30 day, n=6), the “Histopathology: Liver” value is “Mild perivascular lymphohistiocytic aggregates (n=4)”, the “Histopathology: Lung” value is on record as “Mild leukocytes (n=2)” and the “Histopathology: Spleen” value is recorded as “Mild lymphoid hyperplasia (n=2)”. Besides, in the data set with mice (setting [1]), the serum chemistry profiles entry is given as “did not significantly alter serum chemistry profiles”; the “tissue pathology vs vehicle” value is “did not significantly alter serum chemistry profiles (Fig EV3C and D) or impact tissue pathology”.
